ChEMBL document CHEMBL5046245, “Identification of Pyruvate Carboxylase as the Cellular Target of Natural Bibenzyls with Potent Anticancer Activity against Hepatocellular Carcinoma via Metabolic Reprogramming” (J Med Chem, 2022)
Calls of active or inactive are those of the source. The calls are words filed in the database; no cut-off is given here.

Key:
SK-HEP1 = assay: Inhibition of mesenchymal transition in human SK-HEP1 cells overexpressing PC assessed as effect on fibronectin expression; assay type: functional, cell-based
HCCLM3 [1] = assay: Antimigratory activity in human HCCLM3 cells assessed as inhibition of scratch closure at 0.05 to 1 nM measured after 24 hrs by wound healing assay; assay type: functional, cell-based; settings: dose 0.05-1 nM
HCCLM3 [2] = assay: Inhibition of epithelial-mesenchymal transition in human HCCLM3 cells assessed as decrease in N-cadherin expression at 0.05 to 1 nM incubated for 24 hrs by Western blot analysis; assay type: functional, cell-based; settings: dose 0.05-1 nM
HCCLM3 [3] = assay: Induction of glycolysis in human HCCLM3 cells assessed as decrease in level of oxaloacetate at 5 nM; assay type: functional, cell-based
HCCLM3 [4] = assay: Effect on ATP production in PC knockout human HCCLM3 cells assessed as reduction in intracellular ATP level at 10 nM by CellTiter-Lumni plus cell viability assay; assay type: functional, cell-based
[5] = Antitumor activity against human HCCLM3 cells xenografted in NCR-nu/nu mouse assessed wet tumor weight at 25 mg/kg, ip administered alternate days for 21 days and measured 26 days post implantation (Rvb= 1.835 +/- 0.15 g); assay type: functional; settings: time 21 day
HCCLM3 [6] = assay: Induction of apoptosis in human HCCLM3 cells assessed as cell rounding at 20 nM incubated for 24 hrs by DAPI staining based phase contrast microscopic analysis; assay type: functional
HCCLM3 [7] = assay: Induction of apoptosis in human HCCLM3 cells transfected with PC-flag plasmid assessed as reduction in cell viability at 20 to 100 nM incubated for 24 hrs by MTT assay; assay type: functional, cell-based; settings: dose 20-100 nM
HepG2 = assay: Effect on cell cycle arrest in human HepG2 cells assessed as increase accumulation of cells in G2/M phase at 20 nM measured upto 24 hrs hrs by propidium iodide staining based flow cytometry analysis; assay type: functional; settings: time hrs <=24, TDE = time-dependent effect

COc1ccc(CCc2cc(OC)c(OC)c(OC)c2)cc1O
inhibition (SK-HEP1): inactive
Activity (HCCLM3 [1]): Active
inhibition (HCCLM3 [2]): Active
Activity (HCCLM3 [3]): Active
Activity (HCCLM3 [4]): Active
Activity [5]: 1.1883 g
Activity (HCCLM3 [6]): Active
Activity (HCCLM3 [7]): inactive
Activity (HepG2): Tde
